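In this assay, cells in 96-well plates receive the compound at five concentrations for 48 hours. Endpoints are linearly interpolated between the surrounding concentrations. TGI: total growth inhibition.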 Where a SMILES comes first, the peptide text is derived from it. The star is where a group is joined. Boc = CC(C)(C)OC(=O)*
How the values were obtained:
Assay in all cases: growth of human tumour cells (NCI), 48 h
CAKI-1 renal = test system: CAKI-1 renal
CCRF-CEM leukemia = test system: CCRF-CEM leukemia
DU-145 prostate = test system: DU-145 prostate
HOP-92 NSCLC = test system: HOP-92 NSCLC
MDA-MB-435 = test system: MDA-MB-435
MOLT-4 leukemia = test system: MOLT-4 leukemia
NCI-H226 lung = test system: NCI-H226 lung
NCI-H23 lung = test system: NCI-H23 lung
OVCAR-3 ovarian = test system: OVCAR-3 ovarian
SK-MEL-5 melanoma = test system: SK-MEL-5 melanoma

Measured: TGI

OC(c1cc2ccccc2o1)c1cc2ccccc2s1 (stereo not given)
> 10 µM: all assays above

[N-]=[N+]=C1N=CN=C1c1ncn[nH]1
37.5 µM: CAKI-1 renal
37.1 µM: MOLT-4 leukemia
27.6 µM: CCRF-CEM leukemia
45 µM: HOP-92 NSCLC
> 100 µM: all other assays above

COc1ccc2nc3c([N+](=O)[O-])ccc4c3c(c2c1)NCCN4CCO
5.34 µM: DU-145 prostate
0.806 µM: MOLT-4 leukemia
3.06 µM: CAKI-1 renal
2.91 µM: OVCAR-3 ovarian
1.79 µM: MDA-MB-435
1.59 µM: HOP-92 NSCLC
2 µM: CCRF-CEM leukemia
2.45 µM: NCI-H23 lung
0.958 µM: NCI-H226 lung
1.15 µM: SK-MEL-5 melanoma

COC(=O)C1Cc2c(OC)ccc(OC)c2CC(C(=O)OC)C1=O (stereo not given)
85.3 µM: NCI-H23 lung
> 100 µM: all other assays above

CC1(C)N=C(C(N)=O)c2ncn(N)c2N1
not listed: MOLT-4 leukemia
> 100 µM: all other assays above

O=C1NC(SSC2=NNC3(C(=O)N2)c2ccccc2-c2ccccc23)=NNC12c1ccccc1-c1ccccc12
> 10 µM: all assays above

COC(=O)C(Cc1c[nH]c2ccccc12)NC(=O)C(Cc1c[nH]c2ccccc12)NC(=O)C(Cc1c[nH]c2ccccc12)NC(=O)C(Cc1c[nH]c2ccccc12)NC(=O)C(Cc1c[nH]c2ccccc12)NC(=O)C(Cc1c[nH]c2ccccc12)NC(=O)OC(C)(C)C (stereo not given) (Boc-WWWWWW-OMe; configuration not given here)
70.5 µM: SK-MEL-5 melanoma
not listed: HOP-92 NSCLC
> 100 µM: all other assays above

Cc1ccsc1/C=N/Nc1nc2ccccc2s1
31.3 µM: MOLT-4 leukemia
36.1 µM: CAKI-1 renal
60.7 µM: OVCAR-3 ovarian
49.5 µM: HOP-92 NSCLC
51.9 µM: NCI-H226 lung
28.8 µM: CCRF-CEM leukemia
47.9 µM: SK-MEL-5 melanoma
> 100 µM: all other assays above

O=C(c1ccco1)N1CCCN(C(=O)c2ccco2)C1=S
not listed: HOP-92 NSCLC
> 100 µM: all other assays above

O=C(/C=C/c1ccc(O)c(O)c1)OCCCc1ccccc1
34.6 µM: NCI-H226 lung
24.6 µM: MDA-MB-435
30.6 µM: HOP-92 NSCLC
6.6 µM: OVCAR-3 ovarian
26.3 µM: SK-MEL-5 melanoma
36.4 µM: MOLT-4 leukemia
31.6 µM: DU-145 prostate
35.3 µM: NCI-H23 lung
47 µM: CAKI-1 renal

O=C(O)c1cc2ccccc2c(N=Nc2ccc(S(=O)(=O)Nc3nccs3)cc2)c1O
> 100 µM: all assays above

CCC(CON(C)c1ccccc1)(SC)SC
not listed: OVCAR-3 ovarian
> 100 µM: all other assays above

COc1ccc2c(CCN)c(C(=O)O)[nH]c2c1
> 100 µM: all assays above

CCCCc1ccc(Nc2nc3c(ncn3C3CC(O)C(CN=[N+]=[N-])O3)c(=O)[nH]2)cc1 (stereo not given)
> 100 µM: all assays above

CC(O)c1cc2c(s1)C(=O)c1sccc1C2=O (stereo not given)
1.19 µM: CAKI-1 renal
0.0347 µM: DU-145 prostate
0.0362 µM: SK-MEL-5 melanoma
0.0522 µM: MDA-MB-435
2.06 µM: HOP-92 NSCLC
0.428 µM: NCI-H226 lung
> 100 µM: CCRF-CEM leukemia | MOLT-4 leukemia

COC(=O)[C@@H]1[C@@H](c2cccc(Cl)c2)[C@H](C(=O)OC)C2(C[C@@]1(C)O)NCCS2 (stereo not given in full)
14.6 µM: CCRF-CEM leukemia
42.1 µM: MOLT-4 leukemia
> 100 µM: all other assays above

Cn1c(=O)c(C(=O)Nc2nc(C34CC5CC(CC(C5)C3)C4)cs2)c(O)c2ccccc21
65.9 µM: HOP-92 NSCLC
not listed: MOLT-4 leukemia
> 100 µM: all other assays above

NC(N)=N/N=C/c1nc2n(c1[N+](=O)[O-])CCS2
70.2 µM: OVCAR-3 ovarian
88.2 µM: DU-145 prostate
42.6 µM: NCI-H23 lung
63.7 µM: MOLT-4 leukemia
74.1 µM: MDA-MB-435
> 100 µM: CAKI-1 renal | HOP-92 NSCLC | NCI-H226 lung
34.4 µM: SK-MEL-5 melanoma

COC(=O)C1=C(C(=O)OC)C(C(=O)c2ccc(Br)cc2)N2N=C(c3ccc(Cl)cc3)C=CC12 (stereo not given)
> 100 µM: all assays above

COC(=O)C(Cc1c(C2Nc3ccccc3C2CC(NC(=O)CNC(C)=O)C(=O)OC)[nH]c2ccccc12)NC(=O)CNC(C)=O (stereo not given)
> 100 µM: all assays above

Cc1nc(C)c(C(=O)NNC(N)=S)cc1C(=O)NNC(N)=S
not listed: CCRF-CEM leukemia
> 100 µM: all other assays above

From PubChem BioAssay (NCI)
